Measured values reported in patent publication US6855511B2, “Fructosamine oxidase assay: methods and materials” (Protemix Corporation Limited, priority 1998, dated 2005).

Legend:
Type in all cases: biochemical
[1] = system: Human fructosamine oxidase; experiment: Interference of additives/anticoagulants in the fructosamine oxidase assay; settings: additive in the reagent (Heparin 1000 U/L, EDTA 100 μM); control 100
Method: (§1) The reagent is 50 mM TES buffer pH 7.4 containing 10 μM cytochrome c (Sigma), and […] 50 μM fructosamine as glycated bovine serum albumin.
(§2) One unit of enzyme was defined as the amount which reduced 1 μmol/minute of cytochrome c in solution under the above assay conditions. The calculation factor is determined from the molar absorptivity for ferrocytochrome c (E550nm) according to the formula: U/L(μmol.min^−1.L^−1)=TV×10^3/ε550nm×SV where • TV=total reaction volume • SV=sample volume (iv) Materials
Cytochrome c is a non-specific reductant and other reducing substances in sera or anticoagulants added to the blood sample at specimen collection may interfere in the assay as shown in Table 4.

fructosamine oxidase [2] = experiment: Fructosamine oxidase inhibitor assay (ferricytochrome c reduction) in human blood plasma; design: velocity constant (K), fraction of the enzyme inhibited in a given period of time: dose or concentration left out as unconfirmed; settings: human plasma sample; for IC50: read-out: IC50, concentration of inhibitor causing 50% inactivation of the enzyme
Method: as §1, §2
An important application of the current activity assay is as a means to identify potential fructosamine oxidase antagonists and inhibitors. Fructosamine oxidase inhibitors may be hydrazine compounds which bind and block the quinone co-factor, copper chelators which bind and block the copper co-factor, or substrate analogues which mimic the normal substrate of the enzyme. […]
The effectiveness of an enzyme inhibitor is usually expressed by a velocity constant (K) which determines the fraction of the enzyme inhibited in a given period of time by a certain concentration of inhibitor. The specificity of the inhibitor for the active center of the enzyme is indicated by the concentration of inhibitor causing 50% inactivation of the enzyme (IC50). […].

fructosamine oxidase [3] = experiment: Specificity of the fructosamine oxidase assay for reactive oxygen species, free radical scavengers added to the reagent; settings: free radical scavenger added to the reagent (superoxide dismutase 20 kU/L, catalase 1000 kU/L, mannitol 50 mmol/L); control 15.34 ± 0.16
Method: as §1, §2
The specificity of the assay for reactive oxygen species was tested by measuring degree of inhibition of ferricytochrome c reduction after adding the following oxygen free radical scavengers to the reaction mixture: (a) Superoxide dismutase to selectively remove superoxide; (b) catalase to selectively remove hydrogen peroxide; & (iii) mannitol to scavenge hydroxyl radicals.

Question: With `O=C(O)CN(CCN(CC(=O)O)CC(=O)O)CC(=O)O` [EDTA, ethylenediamine tetraacetic acid] as the compound, how does the “Activity compared with control” value [1] read?
Answer: 26.3%

Question: For `C[C@H](CS)C(=O)N1CCC[C@H]1C(=O)O` [captopril], which “velocity constant (K), fraction of the enzyme inhibited in a given period of time” value (fructosamine oxidase [2]) is on record?
Answer: 2.6 % per minute

Question: What about the IC50 (fructosamine oxidase [2]) of the same compound?
Answer: 830 nM

Question: Which results are given for `C[C@@](Cc1ccc(O)c(O)c1)(NN)C(=O)O` [carbidopa]?
Answer: velocity constant (K), fraction of the enzyme inhibited in a given period of time (fructosamine oxidase [2]): 15 % per minute; IC50 (fructosamine oxidase [2]): 500 nM

Question: `OC[C@@H](O)[C@@H](O)[C@H](O)[C@H](O)CO` [mannitol] was tested. Which Enzyme activity (fructosamine oxidase [3]) did it give?
Answer: 14.96 ± 0.19 U/L

Question: For Heparin, which “Activity compared with control” value [1] is on record?
Answer: 24.4%

Question: For catalase, which Enzyme activity (fructosamine oxidase [3]) is on record?
Answer: 12.23 ± 0.03 U/L

Question: With superoxide dismutase as the compound, how does the Enzyme activity (fructosamine oxidase [3]) read?
Answer: 9.99 ± 0.03 U/L
